Reference: PMC4457932, “Characterization of Spirometra erinaceieuropaei Plerocercoid Cysteine Protease and Potential Application for Serodiagnosis of Sparganosis” (PLoS Neglected Tropical Diseases, 2015)
Residues, ends and D or L forms follow the SMILES beside them. *: point of attachment. AMC = Cc1cc(=O)oc2cc(N*)ccc12; Cbz = O=C(OCc1ccccc1)*

Tests used:
rSeCP [1] = molecular target: T1, rSeCP (Spirometra erinaceieuropaei, UniProt O02586); assay: fluorogenic peptidase assay, Z-Phe-Arg-AMC; type: biochemical
T1 construct: MBP fusion (pMAL-c2X, E. coli TB1), 19-residue signal peptide omitted, proform 36 kDa plus MBP 43 kDa, 79 kDa, tag kept; full-length ORF 336 residues
T1 sequence (O02586 entry or part of it): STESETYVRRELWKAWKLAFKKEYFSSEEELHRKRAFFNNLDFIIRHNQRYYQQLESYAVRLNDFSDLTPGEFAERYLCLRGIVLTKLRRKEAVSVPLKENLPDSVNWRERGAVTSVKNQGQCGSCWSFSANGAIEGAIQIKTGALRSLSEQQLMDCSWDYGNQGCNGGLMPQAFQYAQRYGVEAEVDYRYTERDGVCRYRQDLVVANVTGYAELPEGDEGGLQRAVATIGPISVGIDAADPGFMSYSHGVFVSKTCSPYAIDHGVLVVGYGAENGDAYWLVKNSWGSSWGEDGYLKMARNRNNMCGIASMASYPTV
From the text: fluorogenic peptidase assay, Z-Phe-Arg-AMC on rSeCP

rSeCP [2] = molecular target: T1, rSeCP; assay: AMC fluorescence, […] nm; type: biochemical; details: 3 μM substrate, 100 mM sodium acetate, 5 mM DTT, pH 5.5, 37°C

SMILES: CC(C)C[C@H](NC(=O)[C@H]1O[C@@H]1C(=O)O)C(=O)NCCCCN=C(N)N [E-64, L-trans-epoxysuccinyl-leucylamide (4-guanidino) butane]
- activity at 5 µM (rSeCP [1]): 0.8%

SMILES: Cc1cc(=O)oc2cc(NC(=O)[C@H](CCCNC(=N)N)NC(=O)[C@H](Cc3ccccc3)NC(=O)OCc3ccccc3)ccc12 [Z-Phe-Arg-AMC, Z-carbobenzoxy-L-phenylalanyl-L-arginine-(7-amino-4-methylcoumarin)] (Cbz-Phe-Arg-{AMC})
- AMC fluorescence, 355/460 nm (rSeCP [2]): determined by cleavage of the fluorescent substrate Z-carbobenzoxy-L-phenylalanyl-L-arginine-(7-amino-4-methylcoumarin) (Z-Phe-Arg-AMC, Sigma)
